This series in a line: First-in-human phase 1 study: pharmacokinetics parameters of GDC-0853 (plasma) on day 1 and day 15. Type of series: in vivo. The following applies: for AUC(0-inf): read-out: Day 1 AUC0-inf Mean (%CV). An excerpt:
Table 3 Summary of pharmacokinetics parameters for GDC-0853 on day 1 and day 15 (cohorts 1, 2, and 3, with 100, 200, and 400-mg GDC-0853, respectively) | column: Day 1 T1/2 (hr) Mean (%CV); Day 1 Tmax^a (hr) Median (range); Day 1 Cmax (μM) Mean (%CV); Day 1 AUC0-inf (hr•μM) Mean (%CV); Day 1 AUC0-24 (hr*μM) Mean (%CV); Day 15 Tmax^a(hr) Median (range); Day 15 Cmax (μM) Mean (%CV); Day 15 AUC0- 24 (hr•μM) Mean (%CV); Day 15 Accumulation Ratio Mean (%CV)

As usually defined, the Cmax is the peak of the concentration-time curve. Broadly, the Tmax is the time from dosing to the highest level.

Like-named read-outs stand apart in the source and are kept apart here.

As to `C[C@H]1CN(C2COC2)CCN1c1ccc(Nc2cc(-c3ccnc(N4CCn5c(cc6c5CC(C)(C)C6)C4=O)c3CO)cn(C)c2=O)nc1` [GDC-0853], the “Day 15 Accumulation Ratio Mean (%CV)” value is on record as 1.78 (58.4) (100 mg (n = 6), cohort 1, day 15); 1.44 (77.9) (200 mg (n = 9), cohort 2, day 15); 1.91 (102) (400 mg (n = 9), cohort 3, day 15). Moreover, the Cmax by setting is: (human, plasma, 100 mg, 100 mg (n = 6), cohort 1, day 1, plasma, read-out: Day 1 Cmax Mean (%CV)) 119 nM; (human, plasma, 200 mg, 200 mg (n = 9), cohort 2, day 1, plasma, read-out: Day 1 Cmax Mean (%CV)) 571 nM; (human, plasma, 200 mg, 200 mg (n = 9), cohort 2, day 15, plasma, read-out: Day 15 Cmax Mean (%CV)) 614 nM; (human, plasma, 400 mg, 400 mg (n = 9), cohort 3, day 1, plasma, read-out: Day 1 Cmax Mean (%CV)) 1440 nM; (human, plasma, 400 mg, 400 mg (n = 9), cohort 3, day 15, plasma, read-out: Day 15 Cmax Mean (%CV)) 1390 nM. The AUC(0-t) (human, plasma, 100 mg, 100 mg (n = 6), cohort 1, day 1, read-out: Day 1 AUC0-24 Mean (%CV)) worked out at 0.67 µM·h; the AUC(0-t) (human, plasma, 100 mg, 100 mg (n = 6), cohort 1, day 15, read-out: Day 15 AUC0-24 Mean (%CV)) was determined as 1.2 µM·h; the AUC(0-t) (human, plasma, 200 mg, 200 mg (n = 9), cohort 2, day 1, read-out: Day 1 AUC0-24 Mean (%CV)) turned out to be 2.54 µM·h; the AUC(0-t) (human, plasma, 200 mg, 200 mg (n = 9), cohort 2, day 15, read-out: Day 15 AUC0-24 Mean (%CV)) was found to be 2.83 µM·h; the AUC(0-t) (human, plasma, 400 mg, 400 mg (n = 9), cohort 3, day 1, read-out: Day 1 AUC0-24 Mean (%CV)) was found to be 6.95 µM·h; the AUC(0-t) (human, plasma, 400 mg, 400 mg (n = 9), cohort 3, day 15, read-out: Day 15 AUC0-24 Mean (%CV)) came out at 7.74 µM·h. The AUC(0-inf) came out at 0.861 µM·h (human, plasma, 100 mg (n = 6), cohort 1, day 1); 3.42 µM·h (human, plasma, 200 mg (n = 9), cohort 2, day 1); 7.57 µM·h (human, plasma, 400 mg (n = 9), cohort 3, day 1). The Tmax (human, plasma, 200 mg (n = 9), cohort 2, day 15, read-out: Day 15 Tmax Median (range)) stood at 2.1 h.
